Data published in patent publication US20060069136A1, “Use of Epothilones in the treatment of bone metastasis” (priority 2004, published 2006).
“And” between values parts separate entries of the source, which are not always exact repeats. Identical values can stand only once.

Experiments:
[1] = system: Human breast cancer MDA MB 231; assay: Bone metastasis model, Example 2: treatment on Day 5, X-ray on Day 20; format: in vivo, NMRI nude mice; conditions: 10 mg/kg i.v. on Day 5
Method: (§1) Human breast cancer MDA MB 231, injected to NMRI nude mice intracardially
30 NMRI nude mice received 500,000 of MDA-MB 231 breast cancer tumor cells intracardially (Day 0). The tumor cells metastasized to the bones and the growth of the tumor in the bones lead to bone destruction. In addition, the development of tumors near the tumor cell injection site is observed. After 5 days (Day 5), 15 of the 30 animals were treated with the Test Compound (10 mg/kg, i.v.). On Day 20 the experiment was terminated and the size and number of bone metastases were measured in each animal using the X-ray technology described in example 1. In addition, the numer of animals which developed tumors at the tumor cell injection site was determined.

[2] = system: Human breast cancer MDA MB 231; assay: Bone metastasis model, Example 1: treatment on Day 10, X-ray on Day 22, survival; format: in vivo, NMRI nude mice
Method: as §1
Four days before tumor cells implantation, the baseline bone structure of the mice was determined by X-ray. 30 NMRI nude mice received 500,000 of MDA-MB 231 breast cancer tumor cells intracardially (Day 0). The tumor cells metastasized to the bones and the growth of the tumor in the bones lead to bone destruction. After the period of 10 days (Day 10), 10 of the […] animals were treated with the Test Compound (10 mg/kg, i.v.). The size and number of bone metastases were monitored 4 days before tumor cell implantation (baseline) and on Day 22 in each animal using the X-ray technology described below.
The mice underwent an anaesthesia with a mixture of Rompun (Rompun 2% Bayer) diluted with sodium chloride solution(Braun) by 1:10 and Ketavet ( Pharmacia GmbH 100 mg/ml), diluted by 1:5 with isotonic sodium chloride solution. For application of the narcotics, 1 ml sterile syringes (Codan Medical) and cannula (Braun Sterican, size 18) were used.
Once the tolerance stage was reached, the mice were attached to a 1 mm strong acrylic glass and additionally taped with a self-adhesive tape (sticky side facing the animal). The acrylic glass served as surface on which the animals underwent the X-ray.
At the console of the Mammomat (run by the software “Detector” (Ifg) on Windows NT platform), the standard setting of 35 kV and 400 mAs was adjusted. The setting was chosen in such a way to allow a good contrasting of the entire skeletal system and visibility of finest changes/aberrations of the bone structure and morphology. The resolution of the systems lies at 0,27 μm.
After initializing the Software the module “Zoomed Modus” was chosen for the detector and the ROIs 2-3 were selected in accordance with the previously selected positioning of the mouse. The regulator Image High was adjusted to 2000.
The actual measurements were started as soon as the Offset measurings and the reference measurings had been performed. The flexible table was brought into position (80 mm) and was advanced at a speed of 25,9 mm/sec. The final position of the table was chosen in such a way that the entire body of the mouse could be X-rayed all at once during the examination. The reference measuring was subtracted from each gained Image and was stored as a DICOM-file or as a BMP-file.
Analysis of the treatment was performed on Day 22 by evaluating twice the constructed exposures of the mice and searching for destructive processes of the skeletal system (focussing mainly on the long bones, spine and pelvis). The extend/area of the destructive processes/bone metastasis were determined with a special DICOM-Software (based on Microsoft Excel).

[3] = mean per animal, measured on Day 20 by X-ray, 10 mg/kg
[4] = 10 mg/kg i.v. on Day 10, result in words

Q: For C=CCC1C(=O)C(C)(C)C(O)CC(=O)OC(c2ccc3sc(C)nc3c2)CC2OC2(C)CCCC(C)C1O (stereo not shown) [Test Compound, 7,11-dihydroxy-3-(2-methyl-benzothiazol-5-yl)-10-(prop-2-en-1-yl)-8,8,12,16-tetramethyl-4,17-dioxabicyclo[14.1.0]heptadecane-5,9-dione], which Number of bone-metastases [1, 3] is on record?
A: 0.7 and 0.7 ± 0.9

Q: And the Size of bone-metastases [1, 3]?
A: 0.1 mm^2 and 0.1 ± 0.2 mm^2

Q: What about the “Number of animals which developed tumors at the tumor cell injection site” value ([1]; of 15 animals, Day 20) of the same molecule?
A: 0

Q: And the “Effect on bone metastasis (FIG. 1)” value [2, 4]?
A: inhibited bone metastasis

Q: And the “Effect on life time (FIG. 1)” value [2, 4]?
A: prolongation of life time was observed

Q: And the “Mean Survival Time” value ([2]; 10 mg/kg i.v., single application on Day 10, MDA-MB 231 cells intracardially)?
A: 31.6 days

Q: What about the “Mean Bone Tumor Area” value ([2]; 10 mg/kg i.v., single treatment on Day 10, X-ray analysis on Day 22, MDA-MB 231 cells intracardially) of the same molecule?
A: 5.9 mm^2
